Test results from PubChem BioAssay AID2060887 (Molecular Pharmacology Branch, DTP, NCI, 2025).
Each block holds one compound with its values, some of them ahead of it.

Test system: 782815-120-R-J1-PDC complex spheroid viability
Experiment: Anticancer human tumor 782815-120-R-J1-PDC patient-derived colon adenocarcinoma cell line growth inhibition [RAS]
Conditions: for viability, T/C: stronger effect = lower value
Summary of the method: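 Tumour cells grown as complex spheroids with HUVEC endothelial cells and mesenchymal stem cells, treated with RAS pathway inhibitor combinations. Each agent spans half-log steps from near clinical Cmax, or 10 microM where Cmax is unknown.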

[1] = curve of first compound, second compound 0.000949 µM
[2] = curve of first compound, second compound 0.003 µM
[3] = curve of first compound, second compound 0.00949 µM
[4] = curve of first compound, second compound 0.03 µM
[5] = curve of first compound, second compound 0.0949 µM
[6] = curve of first compound, second compound 0.3 µM
[7] = second compound 0.000949 µM, first compound 0.0316 µM
[8] = second compound 0.000949 µM, first compound 0.1 µM
[9] = second compound 0.003 µM, first compound 0.0316 µM
[10] = second compound 0.003 µM, first compound 0.1 µM
[11] = second compound 0.00949 µM, first compound 0.0316 µM
[12] = second compound 0.00949 µM, first compound 0.1 µM
[13] = second compound 0.03 µM, first compound 0.0316 µM
[14] = second compound 0.03 µM, first compound 0.1 µM
[15] = second compound 0.0949 µM, first compound 0.0316 µM
[16] = second compound 0.0949 µM, first compound 0.1 µM
[17] = second compound 0.3 µM, first compound 0.0316 µM
[18] = second compound 0.3 µM, first compound 0.1 µM
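Note: spheroids exposed to compounds for 7 days before reading.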
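Throughout, for viability, T/C: 100% = DMSO vehicle control viability.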

IC50 [1]: > 10 µM
IC50 [2]: > 10 µM
IC50 [3]: > 10 µM
IC50 [4]: > 10 µM
IC50 [5]: > 10 µM
IC50 [6]: > 10 µM
SMILES: CC(C)NCC(C(=O)N1CCN(c2ncnc3c2C(C)CC3O)CC1)c1ccc(Cl)cc1 (stereo not drawn) + CCn1c(-c2cccnc2C(C)OC)c2c3cc(ccc31)N1CCOC(CC(NC(=O)C(C(C)C)N(C)C(=O)C3(F)CCN(C(=O)C#CC(C)(C)N(C)C)CC3)C(=O)N3CCCC(N3)C(=O)OCC(C)(C)C2)C1
viability, T/C [7]: 90.6%
viability, T/C [8]: 90.6%
viability, T/C (second compound 0.000949 µM, first compound 0.316 µM): 104%
viability, T/C (second compound 0.000949 µM, first compound 1 µM): 88.8%
viability, T/C (second compound 0.000949 µM, first compound 3.16 µM): 97.8%
viability, T/C (second compound 0.000949 µM, first compound 10 µM): 104%
viability, T/C [9]: 86.3%
viability, T/C [10]: 98.3%
viability, T/C (second compound 0.003 µM, first compound 0.316 µM): 97%
viability, T/C (second compound 0.003 µM, first compound 1 µM): 91.5%
viability, T/C (second compound 0.003 µM, first compound 3.16 µM): 98.2%
viability, T/C (second compound 0.003 µM, first compound 10 µM): 97.5%
viability, T/C [11]: 95.4%
viability, T/C [12]: 95.9%
viability, T/C (second compound 0.00949 µM, first compound 0.316 µM): 99.7%
viability, T/C (second compound 0.00949 µM, first compound 1 µM): 93.3%
viability, T/C (second compound 0.00949 µM, first compound 3.16 µM): 104%
viability, T/C (second compound 0.00949 µM, first compound 10 µM): 104%
viability, T/C [13]: 105%
viability, T/C [14]: 90.6%
viability, T/C (second compound 0.03 µM, first compound 0.316 µM): 91.9%
viability, T/C (second compound 0.03 µM, first compound 1 µM): 94.9%
viability, T/C (second compound 0.03 µM, first compound 3.16 µM): 97.2%
viability, T/C (second compound 0.03 µM, first compound 10 µM): 96.7%
viability, T/C [15]: 97.1%
viability, T/C [16]: 97.2%
viability, T/C (second compound 0.0949 µM, first compound 0.316 µM): 91.9%
viability, T/C (second compound 0.0949 µM, first compound 1 µM): 95.1%
viability, T/C (second compound 0.0949 µM, first compound 3.16 µM): 107%
viability, T/C (second compound 0.0949 µM, first compound 10 µM): 101%
viability, T/C [17]: 93.4%
viability, T/C [18]: 93.8%
viability, T/C (second compound 0.3 µM, first compound 0.316 µM): 90.4%
viability, T/C (second compound 0.3 µM, first compound 1 µM): 93.2%
viability, T/C (second compound 0.3 µM, first compound 3.16 µM): 97.2%
viability, T/C (second compound 0.3 µM, first compound 10 µM): 92.4%

IC50 (curve of first compound, second compound 0.0316 µM): > 10 µM
IC50 (curve of first compound, second compound 0.1 µM): > 10 µM
IC50 (curve of first compound, second compound 0.316 µM): > 10 µM
IC50 (curve of first compound, second compound 1 µM): > 10 µM
IC50 (curve of first compound, second compound 3.16 µM): > 10 µM
IC50 (curve of first compound, second compound 10 µM): > 10 µM
SMILES: Cc1nc(N2CCC3(CC2)COC(C)C3N)c(CO)nc1Sc1ccnc(N)c1Cl (stereo not drawn) + C#Cc1c(F)ccc2cc(O)cc(-c3ncc4c(N5CC6CCC(C5)N6)nc(OCC56CCCN5CC(F)C6)nc4c3F)c12
viability, T/C (second compound 0.0316 µM, first compound 0.0316 µM): 94.9%
viability, T/C (second compound 0.0316 µM, first compound 0.1 µM): 99.1%
viability, T/C (second compound 0.0316 µM, first compound 0.316 µM): 97.7%
viability, T/C (second compound 0.0316 µM, first compound 1 µM): 90.2%
viability, T/C (second compound 0.0316 µM, first compound 3.16 µM): 91.5%
viability, T/C (second compound 0.0316 µM, first compound 10 µM): 95.2%
viability, T/C (second compound 0.1 µM, first compound 0.0316 µM): 96%
viability, T/C (second compound 0.1 µM, first compound 0.1 µM): 109%
viability, T/C (second compound 0.1 µM, first compound 0.316 µM): 106%
viability, T/C (second compound 0.1 µM, first compound 1 µM): 99.7%
viability, T/C (second compound 0.1 µM, first compound 3.16 µM): 105%
viability, T/C (second compound 0.1 µM, first compound 10 µM): 98.7%
viability, T/C (second compound 0.316 µM, first compound 0.0316 µM): 104%
viability, T/C (second compound 0.316 µM, first compound 0.1 µM): 102%
viability, T/C (second compound 0.316 µM, first compound 0.316 µM): 91.9%
viability, T/C (second compound 0.316 µM, first compound 1 µM): 94.7%
viability, T/C (second compound 0.316 µM, first compound 3.16 µM): 92.1%
viability, T/C (second compound 0.316 µM, first compound 10 µM): 99.7%
viability, T/C (second compound 1 µM, first compound 0.0316 µM): 94.3%
viability, T/C (second compound 1 µM, first compound 0.1 µM): 90.1%
viability, T/C (second compound 1 µM, first compound 0.316 µM): 104%
viability, T/C (second compound 1 µM, first compound 1 µM): 88.8%
viability, T/C (second compound 1 µM, first compound 3.16 µM): 102%
viability, T/C (second compound 1 µM, first compound 10 µM): 98.1%
viability, T/C (second compound 3.16 µM, first compound 0.0316 µM): 99.3%
viability, T/C (second compound 3.16 µM, first compound 0.1 µM): 96.8%
viability, T/C (second compound 3.16 µM, first compound 0.316 µM): 86%
viability, T/C (second compound 3.16 µM, first compound 1 µM): 93.6%
viability, T/C (second compound 3.16 µM, first compound 3.16 µM): 97%
viability, T/C (second compound 3.16 µM, first compound 10 µM): 92.9%
viability, T/C (second compound 10 µM, first compound 0.0316 µM): 101%
viability, T/C (second compound 10 µM, first compound 0.1 µM): 96.7%
viability, T/C (second compound 10 µM, first compound 0.316 µM): 93.4%
viability, T/C (second compound 10 µM, first compound 1 µM): 92.6%
viability, T/C (second compound 10 µM, first compound 3.16 µM): 105%
viability, T/C (second compound 10 µM, first compound 10 µM): 92.3%

IC50 (curve of compound): 2.34 µM [middle of 4 runs]
SMILES: CCC(CC)c1cc(NC2CCC(N)C2)n2nccc2n1 (stereo not drawn)
viability, T/C (compound 0.0316 µM): 103% [middle of 4 runs]
viability, T/C (compound 0.1 µM): 93.2% [middle of 4 runs]
viability, T/C (compound 0.316 µM): 103% [middle of 4 runs]
viability, T/C (compound 1 µM): 99.6% [middle of 4 runs]
viability, T/C (compound 3.16 µM): 34.1% [middle of 4 runs]
viability, T/C (compound 10 µM): 1.98% [middle of 4 runs]

IC50 [1]: > 0.1 µM
IC50 [2]: > 0.1 µM
IC50 [3]: > 0.1 µM
IC50 [4]: > 0.1 µM
IC50 [5]: > 0.1 µM
IC50 [6]: > 0.1 µM
SMILES: CC(C)n1nc(-c2ccc3oc(N)nc3c2)c2c(N)ncnc21 + CCn1c(-c2cccnc2C(C)OC)c2c3cc(ccc31)N1CCOC(CC(NC(=O)C(C(C)C)N(C)C(=O)C3(F)CCN(C(=O)C#CC(C)(C)N(C)C)CC3)C(=O)N3CCCC(N3)C(=O)OCC(C)(C)C2)C1
viability, T/C (second compound 0.000949 µM, first compound 0.000316 µM): 88.2%
viability, T/C (second compound 0.000949 µM, first compound 0.001 µM): 90.7%
viability, T/C (second compound 0.000949 µM, first compound 0.00316 µM): 93%
viability, T/C (second compound 0.000949 µM, first compound 0.01 µM): 88.2%
viability, T/C [7]: 88.1%
viability, T/C [8]: 76.3%
viability, T/C (second compound 0.003 µM, first compound 0.000316 µM): 91.5%
viability, T/C (second compound 0.003 µM, first compound 0.001 µM): 107%
viability, T/C (second compound 0.003 µM, first compound 0.00316 µM): 91.7%
viability, T/C (second compound 0.003 µM, first compound 0.01 µM): 86.4%
viability, T/C [9]: 84.8%
viability, T/C [10]: 78.2%
viability, T/C (second compound 0.00949 µM, first compound 0.000316 µM): 94.8%
viability, T/C (second compound 0.00949 µM, first compound 0.001 µM): 102%
viability, T/C (second compound 0.00949 µM, first compound 0.00316 µM): 87.3%
viability, T/C (second compound 0.00949 µM, first compound 0.01 µM): 94.3%
viability, T/C [11]: 87.3%
viability, T/C [12]: 70.7%
viability, T/C (second compound 0.03 µM, first compound 0.000316 µM): 87%
viability, T/C (second compound 0.03 µM, first compound 0.001 µM): 99.9%
viability, T/C (second compound 0.03 µM, first compound 0.00316 µM): 94.1%
viability, T/C (second compound 0.03 µM, first compound 0.01 µM): 93.6%
viability, T/C [13]: 106%
viability, T/C [14]: 70.5%
viability, T/C (second compound 0.0949 µM, first compound 0.000316 µM): 87.7%
viability, T/C (second compound 0.0949 µM, first compound 0.001 µM): 95.2%
viability, T/C (second compound 0.0949 µM, first compound 0.00316 µM): 99.6%
viability, T/C (second compound 0.0949 µM, first compound 0.01 µM): 83.7%
viability, T/C [15]: 87.8%
viability, T/C [16]: 78.8%
viability, T/C (second compound 0.3 µM, first compound 0.000316 µM): 90.9%
viability, T/C (second compound 0.3 µM, first compound 0.001 µM): 92.1%
viability, T/C (second compound 0.3 µM, first compound 0.00316 µM): 86.1%
viability, T/C (second compound 0.3 µM, first compound 0.01 µM): 90.2%
viability, T/C [17]: 90.6%
viability, T/C [18]: 69.2%
